Test results as given in patent publication US20030171579A1, “Urethane derivatives” (priority 2003, published 2003).

Legend:
factor Xa, human = factor Xa, human (Homo sapiens, UniProt P00742); assay: Inhibition of factor Xa ("Affinity to receptors"); type: biochemical
Description: The inhibition of factor Xa by the compounds according to the invention and the measurement of the anticoagulant and antithrombotic activity can be determined by conventional in-vitro or in-vivo methods. A suitable method is described, for example, by J. Hauptmann et al. in Thrombosis and Haemostasis 1990, 63, 220-223.
The inhibition of factor Xa can be measured, for example, by the method of T. Hara et al. in Thromb. Haemostas. 1994, 71, 314-319.

TF/VIIa = TF/VIIa (Homo sapiens, UniProt P08709); assay: Inhibition of TF/VIIa ("Affinity to receptors"); type: biochemical
TF/VIIa, sequence (P08709 213-466 limits assumed): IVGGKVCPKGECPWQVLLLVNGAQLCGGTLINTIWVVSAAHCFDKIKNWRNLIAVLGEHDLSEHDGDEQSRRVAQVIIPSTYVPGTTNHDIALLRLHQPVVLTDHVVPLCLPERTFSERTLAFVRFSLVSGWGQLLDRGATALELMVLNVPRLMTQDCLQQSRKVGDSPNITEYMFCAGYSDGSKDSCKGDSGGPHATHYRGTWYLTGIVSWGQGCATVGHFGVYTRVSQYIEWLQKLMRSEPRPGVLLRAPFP
TF/VIIa, sequence (P08709 61-212 limits assumed): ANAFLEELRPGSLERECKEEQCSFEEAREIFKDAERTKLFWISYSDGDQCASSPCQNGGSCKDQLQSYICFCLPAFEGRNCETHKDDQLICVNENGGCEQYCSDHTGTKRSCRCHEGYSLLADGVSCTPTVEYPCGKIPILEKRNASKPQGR
TF/VIIa, sequence (P13726 33-295 partner): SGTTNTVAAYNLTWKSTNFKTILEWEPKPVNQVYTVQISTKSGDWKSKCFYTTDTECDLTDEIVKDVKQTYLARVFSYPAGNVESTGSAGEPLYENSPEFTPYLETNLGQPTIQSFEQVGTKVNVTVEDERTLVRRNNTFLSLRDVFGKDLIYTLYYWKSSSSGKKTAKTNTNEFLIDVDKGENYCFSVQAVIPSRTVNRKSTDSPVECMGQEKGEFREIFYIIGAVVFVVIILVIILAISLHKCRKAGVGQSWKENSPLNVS
Description: The inhibition of factor VIIa by the compounds according to the invention and the measurement of the anticoagulant and antithrombotic activity can be determined by conventional in-vitro or in-vivo methods. A conventional method for the measurement of the inhibition of factor VIIa is described, for example, by H. F. Ronning et al. in Thrombosis Research 1996, 84, 73-81.

factor Xa, human, sequence (P00742 235-488 limits assumed): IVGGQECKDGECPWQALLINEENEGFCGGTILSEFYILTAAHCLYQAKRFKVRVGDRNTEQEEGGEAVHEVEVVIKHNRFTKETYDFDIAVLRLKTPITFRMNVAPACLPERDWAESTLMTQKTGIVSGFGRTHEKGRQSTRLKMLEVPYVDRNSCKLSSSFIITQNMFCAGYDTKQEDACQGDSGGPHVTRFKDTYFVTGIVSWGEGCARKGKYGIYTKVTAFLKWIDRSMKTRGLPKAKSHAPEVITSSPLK
factor Xa, human, sequence (P00742 41-179 limits assumed): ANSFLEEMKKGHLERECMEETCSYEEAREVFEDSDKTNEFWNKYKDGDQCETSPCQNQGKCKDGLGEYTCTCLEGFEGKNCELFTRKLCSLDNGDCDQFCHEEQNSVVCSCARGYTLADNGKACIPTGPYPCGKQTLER

IC50 (factor Xa, human) [nM] | melting point [°C] | IC50 (TF/VIIa) [nM] | Compound
140 | 166 to 167 | 80 | CCCN(Cc1cccc(C(=N)N)c1)C(=O)Nc1ccc(-c2ccccc2S(N)(=O)=O)cc1 [Example 3.3, 1-(3-amidino-benzyl)-3-(2′-sulfamoylbiphenyl-4-yl)-1-propylurea]
100 | – | 30 | CCCN(Cc1cccc(C(=N)N)c1)C(=O)Nc1ccc(-c2ccccc2S(C)(=O)=O)cc1 [Example 4.3, 1-(3-amidino-benzyl)-3-(2′-methylsulfonylbiphenyl-4-yl)-1-propylurea]
300 | – | 70 | CS(=O)(=O)c1ccccc1-c1ccc(NC(=O)N(Cc2cccc(C(=N)N)c2)c2ccccc2)cc1 [Example 6.3, 1-(3-amidinobenzyl)-3-(2′-methylsulfonylbiphenyl-4-yl)-1-phenylurea]
330 | 201 to 202 | 100 | N=C(N)c1cccc(CN(C(=O)Nc2ccc(-c3ccccc3S(N)(=O)=O)cc2)c2ccccc2)c1 [Example 5.3, 1-(3-amidinobenzyl)-3-(2′-sulfamoylbiphenyl-4-yl)-1-phenylurea]
80 | – | 26 | CS(=O)(=O)c1ccccc1-c1ccc(NC(=O)N(Cc2ccccc2)Cc2cccc(C(=N)N)c2)cc1 [1-(3-amidinobenzyl)-3-(2′-methylsulfonylbiphenyl-4-yl)-1-benzylurea]
